Reference: patent EP4763841A1, “PYRIDAZINONE COMPOUND AND USE THEREOF” (Xi'an Xintong Pharmaceutical Research Co., Ltd., priority 2023, dated 2025)

Columns and labels:
THRβ = biological target: T1, THRβ (Homo sapiens, UniProt P10828); assay: HTRF test of agonist-induced SRC3-2 coactivator peptide recruitment to THRβ-LBD; assay type: biochemical
T1 sequence (P10828 217-461 limits assumed): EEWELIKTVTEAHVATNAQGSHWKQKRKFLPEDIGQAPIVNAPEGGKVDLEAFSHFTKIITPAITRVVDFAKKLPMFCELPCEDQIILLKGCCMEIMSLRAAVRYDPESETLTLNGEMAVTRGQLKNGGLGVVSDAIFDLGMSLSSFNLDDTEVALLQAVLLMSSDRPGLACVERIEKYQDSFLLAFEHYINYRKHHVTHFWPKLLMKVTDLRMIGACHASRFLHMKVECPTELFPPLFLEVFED
Experimental: (§1) 1. Experiment of binding of compounds to THRβ and THRα
(§2) Test principle: The effect of test compounds on THRβ and THRα was tested by using a method of HTRF. An MAb Anti GST-Eu cryptate antibody binds to GST-tagged THRα-LBD (or THRβ-LBD), while Streptavidin-XL665 binds to a biotin-labeled SRC3-2 coactivator peptide. […] At the same time, the resulting decrease in the distance between XL665-labeled SRC3-2 and an Eu-anti-GST antibody increases a THRFRET signal. The agonistic capacity at this target was assessed by the effect of compounds on the activity of THRα-LBD (THRβ-LBD) at different concentrations.
Test method: THRβ test procedures:
(§3) • (1) a 1×reaction solution was prepared. • (2) Preparation of compounds: the compound test starting concentration was 20 µM, 3-fold dilution was performed, 10 concentrations were set, and duplicate testing was set for each concentration. 100-fold dilution was performed in a 384-well Source plate to a corresponding solution with a final concentration, and then 200 nL of the solution was transferred to a 384-well reaction plate with Echo550 to be tested. 200 nL of 100% DMSO and a test article were respectively transferred to Min and Max wells. • (3) A 2×protein solution was prepared from the 1×reaction solution. • (4) A 4×SRC3-2 solution was prepared from the 1×reaction solution. • (5) A mixed solution of 4×GST-Eu cryptate and XL665 was prepared from the 1×reaction solution. • (6) 10 µl of the 2×protein solution was added to each well of the reaction plate, centrifugation was performed at 1000 rpm for 1 min, and incubation was performed at room temperature for 30 min. • (7) 5 µl of the 4×SRC3-2 solution was added to each well of the reaction plate, and centrifugation was performed at 1000 rpm for 1 min. • (8) 5 µL of the mixed solution of 4×GST-Eu cryptate and XL665 was added to each well of the reaction plate, centrifugation was performed at 1000 rpm for 1 min, and incubation was performed at 25°C. • (9) A fluorescence signal was read by using EnVision.

THRα = THRα (Homo sapiens, UniProt P10827); assay: HTRF test of agonist-induced SRC3-2 coactivator peptide recruitment to THRα-LBD; assay type: biochemical
Experimental: as §1, §2, §3
THRα test procedures were the same as above.

THRα, sequence (P10827 148-410 isoform P10827-2 limits assumed, other chains not shown): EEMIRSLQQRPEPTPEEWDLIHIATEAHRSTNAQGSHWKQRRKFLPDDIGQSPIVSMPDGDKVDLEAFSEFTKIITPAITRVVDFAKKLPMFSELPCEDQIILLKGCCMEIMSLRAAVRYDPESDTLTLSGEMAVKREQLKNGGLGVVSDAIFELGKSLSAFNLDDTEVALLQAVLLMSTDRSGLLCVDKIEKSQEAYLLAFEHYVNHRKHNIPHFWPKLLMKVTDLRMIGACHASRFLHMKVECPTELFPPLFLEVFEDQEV

## [2H]C([2H])([2H])C(c1c(C)c(Oc2c(Cl)cc(-n3nc(CF)c(=O)[nH]c3=O)cc2Cl)n[nH]c1=O)C([2H])([2H])[2H] [Compound 6]
THRβ; HTRF, starting concentration 20 µM, 3-fold dilution, 10 concentrations, duplicate, read-out: THRβ (EC50)
  EC50: 6.5 nM
THRβ; result in words
  agonistic activity on THRβ compared with Resmetirom: significantly better than that of Resmetirom
  selectivity of agonistic effect for THRβ over THRα: selective agonistic effects on THRβ
THRα; HTRF, starting concentration 20 µM, 3-fold dilution, 10 concentrations, duplicate
  EC50: > 5000 nM
THRα; result in words
  agonistic activity on THRα: weak agonistic activity on THRα
